Holding throughout (assay): NCI tumour cell line growth inhibition, 48 h
The subject of experiment [1] is UACC-257 melanoma.
In experiment [2] the test system is MCF7 breast.
Experiment [3] deals with HS 578T breast.
The subject of experiment [4] is OVCAR-5 ovarian.
For experiment [5], the system named is CCRF-CEM leukemia.
Experiment [6] relates to NCI-H226 lung.
Experiment [7] has as its system SF-539 CNS.
Experiment [8] has as its system EKVX NSCLC.
Experiment [9] concerns TK-10 renal.
The subject of experiment [10] is SK-MEL-2 melanoma.

From PubChem BioAssay (NCI) come the findings set out here.

“And” between values parts separate entries of the source, which are not always exact repeats. Identical values can stand only once.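 Tested at 5 concentrations; 48 h exposure; 96-well plates; endpoints linearly interpolated, else capped at highest concentration. GI50 = concentration required for 50% inhibition of growth. TGI is the concentration that stops growth completely.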 Where only a bound is given, the exact number is not on record here.

For `Cc1[nH]c2ncn(/N=C/c3ccccc3O)c(=N)c2c1Cc1ccccc1`, the TGI in experiment [1], in [2], in experiment [3], in [4], in [5] and in [6] was over 100 µM in each case. Also, the TGI in experiment [7] was over 100 µM; in experiment [8], over 100 µM; in [9], over 100 µM; in [10], 83.9 µM.
In the case of `C1CC2=C(C1)[Se]C(=C1Sc3nsnc3S1)[Se]2`, the TGI in experiment [1], in experiment [2], in [3], in experiment [4], in experiment [5] and in [6] was over 100 µM throughout. In addition, the TGI in experiment [7], in experiment [8], in experiment [9] and in [10] was over 100 µM throughout.
In the case of `Nc1nc2c(=O)c3ccccc3sc2s1`, the TGI was over 100 µM in experiment [1]; over 100 µM in experiment [2]; over 100 µM in [3]; over 100 µM in experiment [4]; over 100 µM in experiment [5]; 79.1 µM in [6]. Besides, the TGI in experiment [7] was 48.2 µM; in [8], over 100 µM; in [9], over 100 µM; in experiment [10] it was over 100 µM.
As for `C/C=C/[C@@]1(OC(=O)c2ccccc2)C[C@@H]2CCCC[C@@H]21`, the TGI in experiment [1] is 34.1 µM; in [2], 33.3 µM; in [3], 27.2 µM; in experiment [4], 30.8 µM; in experiment [5], 45.4 µM; in [6], 30.9 µM. For the same compound, the TGI in experiment [7] came to 33.1 µM; in experiment [8], 31.7 µM; in [9], 36 µM; in [10], 30.3 µM.
As to `CN(C)CCNc1ccc(C(=O)NCCCN(C)CCCNC(=O)c2ccc(NCCN(C)C)c3c(=O)c4ccccc4[nH]c23)c2[nH]c3ccccc3c(=O)c12`, the TGI in [1] was determined as 3.25 µM; in experiment [2], 0.489 µM; in [3], 1.75 µM; in [4], 1.1 µM; in experiment [5], 1.02 µM; in [6], 0.148 µM. Further, the TGI in [7] was under 0.0309 µM; in [8], 3.8 µM; in [9], 6.94 µM; in [10] it was 0.414 µM.
As for `O=c1[nH]c(=O)n(C2CC(O)C(CO)O2)cc1I` (configuration not stated), the TGI in [1], in experiment [2], in [3], in [4], in experiment [5] and in experiment [6] was over 100 µM in each case. Also, the TGI in experiment [7], in experiment [8], in experiment [9] and in experiment [10] was over 100 µM in each case.
As for `O=C1c2ccccc2C2CNC1(O)c1ccccc12` (configuration not stated), the TGI in experiment [1], in experiment [2], in experiment [3], in [4], in experiment [5] and in [6] was over 100 µM each time. The TGI in experiment [7], in experiment [8], in [9] and in [10] was over 100 µM each time.
Take `CC(C)(C)OC(=O)CN1CCNCCNCC1`: the TGI in experiment [1], in experiment [2], in [3], in [4], in experiment [5] and in experiment [6] was over 100 µM in each case. Also, the TGI in experiment [7], in experiment [8], in experiment [9] and in [10] was over 100 µM throughout.
`CCOC(=O)c1cnc(-n2[nH]c(C)c(CCO)c2=O)[nH]c1=O`: the TGI in experiment [1], in experiment [2], in [3], in [4], in experiment [5] and in [6] was over 100 µM each time. Also, the TGI in experiment [7], in [8], in experiment [9] and in experiment [10] was over 100 µM in each case.
`Nc1nc(Cl)cc(NCC2(O)CC(CO)C2)n1` (configuration not stated): the TGI in experiment [1], in experiment [2], in [3], in [4], in experiment [5] and in [6] was over 100 µM in each case. In addition, the TGI in [7], in [8], in experiment [9] and in [10] was over 100 µM each time.
For the compound `O=C1Oc2ccccc2C(=O)/C1=C/N1C(=O)N/C(=C\c2ccccc2O)C1=O`, the TGI in [1], in experiment [2], in experiment [3], in [4], in [5] and in experiment [6] was over 100 µM each time. Also, the TGI in experiment [7], in [8], in experiment [9] and in experiment [10] was over 100 µM throughout.
`C=C(C)[C@@]1(O)O[C@H]2C[C@@]3(C)OC(=CC3=O)/C(C)=C\[C@@H]3OC(=O)[C@@]1(C)[C@H]32`: the TGI in [1] was over 63.5 µM; in [2], 29.1 µM; in experiment [3], over 100 µM; in experiment [4], 19.7 µM; in experiment [5] it was 24.1 µM; in experiment [6], 69.8 µM. Further, the TGI in experiment [7] is 56 µM; in experiment [8], over 65.1 µM; in experiment [9], 42.1 µM; in [10] it was over 56.3 µM.
`c1ccc(CNC2CC(NCc3ccccn3)CC(NCc3ccccn3)C2)nc1` (configuration not stated): the TGI in experiment [1] is 21.4 µM and 9.81 µM; in experiment [2], 6.31 µM and 8.62 µM and 3.65 µM; in experiment [3], 53.3 µM and 25 µM and 85.5 µM; in experiment [4], 14.4 µM and 25 µM and 8.94 µM; in experiment [6], 6.07 µM and 7.07 µM and 5.39 µM; in experiment [7] it was 10.1 µM and 10.7 µM and 15.7 µM. For the same compound, the TGI in experiment [8] was 14.7 µM and 25 µM and 16.6 µM; in [9], 17.8 µM and 10.8 µM; in experiment [10] it was 6.86 µM and 11.5 µM and 12.2 µM. In addition, the GI50 in experiment [2] is 1.89 µM; in [4], 3.66 µM and 14.4 µM and 2.89 µM; in [5] it was 4.64 µM; in experiment [6], 2.77 µM; in experiment [7], 1.98 µM and 4.74 µM and 3.22 µM; in experiment [8] it was 3.87 µM and 7.93 µM and 3.88 µM. For the same compound, the GI50 in [10] is 3.4 µM.
As to `O=C1NC(N/N=C\C(O)C(O)C(O)CO)=N/C1=C/c1ccccc1` (configuration not stated), the TGI in experiment [1], in experiment [2], in experiment [3], in experiment [4], in experiment [5] and in experiment [6] was over 100 µM in each case. Moreover, the TGI in experiment [7], in experiment [8], in experiment [9] and in [10] was over 100 µM throughout. The GI50 in [5] was 65.9 µM and 32.7 µM; in [7], > 100 µM and 34.3 µM.
As for `COC(=O)c1cn(CCCC(=O)O)nn1`, the TGI in experiment [1], in [2], in experiment [3], in experiment [5], in experiment [6] and in experiment [7] was over 100 µM throughout. Moreover, the TGI in experiment [8], in [9] and in experiment [10] was over 100 µM each time.
With `OCC1OC(c2scc3c(=S)nc[nH]c23)C(O)C1O` (configuration not stated), the TGI in experiment [1] was over 46.4 µM; in [2], 27.3 µM; in experiment [3], 6.52 µM; in experiment [4] it was over 100 µM; in [5], over 100 µM; in experiment [6], 85.4 µM. The TGI was 57.6 µM in [7], over 100 µM in experiment [8], over 100 µM in experiment [9] and over 65.6 µM in [10].
For `C=CCC1(O)c2ccccc2C(=O)c2c(O)ccc(O)c21` (configuration not stated), the TGI is 19 µM in [1]; 26.3 µM in experiment [2]; 21.9 µM in [3]; 60.4 µM in experiment [4]; 56.7 µM in [5]; over 43 µM in [6]. Besides, the TGI in experiment [7] was over 33.7 µM; in [8], 57 µM; in [9] it was 47.1 µM; in experiment [10], 9.98 µM.
Regarding `O=C1c2c(F)c(F)c(F)c(F)c2SC2=NCCN12`, the TGI is 21.8 µM in experiment [1]; 23.5 µM in experiment [2]; 46.4 µM in [3]; 29.2 µM in experiment [4]; over 21.6 µM in experiment [5]; 34.5 µM in [6]. Also, the TGI in experiment [7] was 30 µM; in experiment [8], 41.4 µM; in [9] it was 22.4 µM; in experiment [10] it was 6.52 µM.
`COc1ccc2oc(=N)c(C(=O)Nc3cccc4ccccc34)cc2c1`: the TGI in experiment [1] is over 100 µM; in [2], 63.9 µM; in [3] it was 72.1 µM; in experiment [4], over 100 µM; in experiment [5], over 100 µM; in [6] it was over 100 µM. Further, the TGI is over 100 µM in experiment [7], over 100 µM in [8], 51.1 µM in experiment [9] and 85.7 µM in experiment [10].
With `CCC(C)[C@H](NC(=O)[C@H](Cc1ccccc1)NC(=O)N(CC)c1ccccc1)C(=O)N[C@@H](CC(C)C)C(=O)OC` (some centres not stated), the TGI in [1] was 74.8 µM; in experiment [2], over 100 µM; in [3] it was over 100 µM; in experiment [4], over 100 µM; in experiment [5], 66.7 µM; in experiment [6] it was 46.2 µM. Besides, the TGI in experiment [7] is 93.8 µM; in experiment [8], over 100 µM; in experiment [9], over 100 µM; in experiment [10] it was over 100 µM.
In the case of `O=c1cnn(C/C=C\CO)c(=O)[nH]1`, the TGI in [1], in experiment [2], in [3], in experiment [4], in [5] and in [6] was over 100 µM throughout. For the same compound, the TGI in [7], in experiment [8], in [9] and in experiment [10] was over 100 µM throughout.
As for `CCOC(=O)c1cccc(NC(=O)CCl)c1`, the TGI in [1] came out at 14.1 µM; in experiment [2], 6.81 µM; in experiment [3] it was 11 µM; in experiment [4], 16.9 µM; in experiment [5] it was 10.6 µM; in experiment [6] it was 26 µM. Besides, the TGI worked out at 5.78 µM in [7], 8.9 µM in experiment [8], 15 µM in [9] and 8.57 µM in experiment [10].
As to `O=c1c2ccccc2oc2nc3n(c(=O)c12)CCCS3`, the TGI in experiment [1], in [2], in experiment [3], in experiment [4], in [5] and in experiment [6] was over 100 µM throughout. Besides, the TGI in experiment [7], in experiment [8], in [9] and in experiment [10] was over 100 µM each time.
As to `CN(C)c1nc2sc3c(c2c(=O)o1)CCCC3`, the TGI in experiment [1] is over 100 µM; in experiment [2], over 100 µM; in experiment [3], over 100 µM; in experiment [4] it was over 100 µM; in [5], over 100 µM; in experiment [6], 81 µM. Moreover, the TGI in experiment [7] is over 100 µM; in experiment [8], over 100 µM; in [9], over 100 µM; in experiment [10], 99.4 µM.
In the case of `O=S(=O)(Oc1ccc2oc3ccccc3c2c1-c1c(OS(=O)(=O)C(F)(F)F)ccc2oc3ccccc3c12)C(F)(F)F`, the TGI in experiment [1], in [2], in [3], in experiment [4], in experiment [5] and in experiment [6] was over 100 µM each time. In addition, the TGI in [7], in experiment [8], in experiment [9] and in experiment [10] was over 100 µM in each case.
Regarding `O=C1C=CC2CCC1C2` (configuration not stated), the TGI was over 100 µM in [1]; over 100 µM in [2]; 80.4 µM in [3]; 61.6 µM in experiment [4]; over 100 µM in experiment [5]; 98.5 µM in experiment [6]. The TGI is 90.2 µM in [7], over 100 µM in experiment [8], over 100 µM in [9] and over 100 µM in [10].
In the case of `CCOc1cc2c(cc1O)/C(=N\N)C[C@@H]1[C@@H]2CC[C@]2(C)[C@@H](O)CC[C@@H]12`, the TGI in [1] is over 50.9 µM; in [2], over 100 µM; in [3], over 27 µM; in [4], over 86 µM; in experiment [5], over 100 µM; in [6] it was 29.2 µM. The TGI was 38 µM in [7], over 100 µM in experiment [8], over 68 µM in [9] and 99.5 µM in [10].
